In EP0381527A1, “Ouabain like compounds and pharmaceutical compositions containing them” (YISSUM RESEARCH DEVELOPMENT COMPANY OF THE HEBREW …, priority 1989, dated 1990):

What was measured:
Na,K-ATPase [1] = assay: Inhibition of [3H]-ouabain binding to rat brain synaptosomal fraction (filtration); details: Figure 10; result in words
Description: Assays for Digitalis-Like Activity: • The digitalis-like activity of each fraction obtained in the course of the purification was determined quantitatively using at least two of the following bioassays: • a. Inhibition of [^3H]-ouabain binding: • The binding of [^3H]-ouabain to rat brain synaptosomal fraction was carried out by a conventional filtration technique as previously described (Lichtstein D., et al., Life Sci. 38: 1261-1270 (1986)). In brief: The reaction mixture (500µl final volume) contained the following constituents (final concentrations): 50 mM Tris-HCI buffer (pH 7.4), 0.5 mM EDTA, 80 mM NaCI, 4 mM MgSO4, 2 mM ATP (Tris, vanadium-free) and 32 nM [^3H]-ouabain (19.5 Ci/mmol). […] The filters were washed two times with 3 ml volumes of the same Tris buffer, dried and assayed for radioactivity in a Packard liquid scintillation counter at a counting efficiency of approximately 50%. Specific binding was calculated by subtracting the binding observed in the presence of 100 µM unlabeled ouabain from that observed in the absence of unlabeled ouabain. […] Inhibition of Na, K-ATPase activity: • Na,K-ATPase activity in rat brain microsomal fraction was determined as previously described (Lichtstein D., et al., Life Sci. 38: 1261-1270 (1986)). […]

Na,K-ATPase [2] = assay: Inhibition of Na,K-ATPase activity in rat brain microsomal fraction (colorimetric inorganic phosphate); format: biochemical
Description: Assays for Digitalis-Like Activity: • The digitalis-like activity of each fraction obtained in the course of the purification was determined quantitatively using at least two of the following bioassays: • a. Inhibition of [^3H]-ouabain binding: • The binding of [^3H]-ouabain to rat brain synaptosomal fraction was carried out by a conventional filtration technique as previously described (Lichtstein D., et al., Life Sci. 38: 1261-1270 (1986)). In brief: The reaction mixture (500µl final volume) contained the following constituents (final concentrations): 50 mM Tris-HCI buffer (pH 7.4), 0.5 mM EDTA, 80 mM NaCI, 4 mM MgSO4, 2 mM ATP (Tris, vanadium-free) and 32 nM [^3H]-ouabain (19.5 Ci/mmol). Reactions were initiated by the addition of 200 µl of crude synaptosomal fraction resulting in a final protein concentration of 200 µg per reaction. Following incubation for 1 hr. at 37° C, the reactions were terminated by the addition of 3 ml cold (4°C) 50 mM Tris-HCI (pH 7.4) and filtered over Whatman GF/B filters. The filters were washed two times with 3 ml volumes of the same Tris buffer, dried and assayed for radioactivity in a Packard liquid scintillation counter at a counting efficiency of approximately 50%. Specific binding was calculated by subtracting the binding observed in the presence of 100 µM unlabeled ouabain from that observed in the absence of unlabeled ouabain. Specific binding represented 93% of the total binding under control conditions. • b. Inhibition of Na, K-ATPase activity: • Na,K-ATPase activity in rat brain microsomal fraction was determined as previously described (Lichtstein D., et al., Life Sci. 38: 1261-1270 (1986)). Enzyme activity was measured by the colorimetric determination of inorganic phosphate after the incubation of microsomes (200 µg protein per reaction) at 37 C in a solution (final volume 500 µl) containing (final concentrations) 34 mM Tris-HCI (pH 7.4), 100 mM NaCl, 20 mM KCI, 4 Mm MgC12 and 4 mM ATP (Tris, vanadium free). After preincubation for 10 min., the ATP was added to initiate the reaction. Reactions were terminated by the addition of 100 µl of 5% trichloroacetic acid and.the precipitate was removed by centrifugation. Na,K-independent ATPase activity was determined by omitting Na^+ and K^+ from the reaction mixture or by the addition of 1 mM ouabain to the complete assay mixture. • c. Inhibition of ^86Rb uptake to N1E115 cells: • Neuroblastoma N1E115 cells were grown in MEM (Modified Eagle's Medium) medium. Cells were removed from their growth flask by raising and lowering the medium with a pipette and centrifuged at 100 x g in a Sorval RC-5 centrifuge for 10 minutes. The pellet was resuspended in MEM. 86Rb-uptake was initiated by the addition of N1E115 cells to MEM which contained ^86Rb tracer (1 µCi). Uptake was terminated after 1 min. by the addition of 1.5 ml ice cold 125 mM MgC12 solution followed by 1 min. centrifugation in an Eppendorf centrifuge. The Eppendorf tube was cut and the pellet removed and transferred to a scintilation vial, to which 6 ml of Emulsifier Scintillator 299TM (Packard) were added and radioactivity was determined.

Q: Which results are given for `CCCC=CC(O)CC(O)CCCCCCCCCC(=O)O` (single isomer, unassigned) [DLC-II, 11,13-dihydroxy-14-octadecaenoic acid]?
A: inhibition of [^3H]-ouabain binding (Na,K-ATPase [1]): inhibit [^3H]-ouabain binding in a dose dependent mode; Na+, K+-ATPase activity (% of control) (Na,K-ATPase [2]; amount 1 (arbitrary units)): 90 % of control; Na+, K+-ATPase activity (% of control) (Na,K-ATPase [2]; amount 2 (arbitrary units)): 67 % of control; Na+, K+-ATPase activity (% of control) (Na,K-ATPase [2]; amount 3 (arbitrary units)): 71 % of control; Na+, K+-ATPase activity (% of control) (Na,K-ATPase [2]; amount 5 (arbitrary units)): 51 % of control; Na+, K+-ATPase activity (% of control) (Na,K-ATPase [2]; amount 8 (arbitrary units)): 10 % of control
